Laboratory results as given in the supplement of paper PMC10307832.

Tests used:
Experiment in all cases: relative viability (nuclei count vs DMSO), 5 days (fraction); higher = more cells survive
[1] = compound: C1=CC2=C(C=C(C(=C2N=C1)O)N=NC3=CC4=C(C=C3)C=C(C=C4)S(=O)(=O)O)S(=O)(=O)O + CS(=O)(=O)CCNCc1ccc(-c2ccc3ncnc(Nc4ccc(OCc5cccc(F)c5)c(Cl)c4)c3c2)o1 [Lapatinib] (partner 2 µM)
Method in brief: (§1)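 Lung cancer cell lines in 1536-well plates got either a single drug or a fixed anchor-drug dose together with five library-drug doses (not always all listed) in √10 steps, by pin tool, on the day after seeding. Nuclei were counted after 5 days, and relative viability is the treated-to-vehicle ratio of nuclei counts. Values are medians of duplicate plates.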

[2] = compound: C1=CC2=C(C=C(C(=C2N=C1)O)N=NC3=CC4=C(C=C3)C=C(C=C4)S(=O)(=O)O)S(=O)(=O)O + O=C(c1cc(Cc2n[nH]c(=O)c3ccccc23)ccc1F)N1CCN(C(=O)C2CC2)CC1 [Olaparib] (partner 8 µM)
Method in brief: as §1

AT-7519 + Tozasertib = compound: O=C(NC1CCNCC1)c1n[nH]cc1NC(=O)c1c(Cl)cccc1Cl [AT-7519] + Cc1cc(Nc2cc(N3CCN(C)CC3)nc(Sc3ccc(NC(=O)C4CC4)cc3)n2)n[nH]1 [Tozasertib] (partner 0.1 µM)
Method in brief: as §1

AT-7519 + Decitabine = compound: O=C(NC1CCNCC1)c1n[nH]cc1NC(=O)c1c(Cl)cccc1Cl [AT-7519] + Nc1ncn([C@H]2C[C@H](O)[C@@H](CO)O2)c(=O)n1 [Decitabine] (partner 2 µM)
Method in brief: as §1

Cell Line	relative viability ([1]; first compound 0.08 µM)	relative viability ([1]; first compound 0.253 µM)	relative viability ([1]; first compound 0.8 µM)	relative viability ([1]; first compound 2.53 µM)	relative viability ([1]; first compound 8 µM)	relative viability ([2]; first compound 0.08 µM)	relative viability ([2]; first compound 0.253 µM)	relative viability ([2]; first compound 0.8 µM)	relative viability ([2]; first compound 2.53 µM)	relative viability ([2]; first compound 8 µM)	relative viability (AT-7519 + Tozasertib; first compound 0.01 µM)	relative viability (AT-7519 + Tozasertib; first compound 0.03162 µM)	relative viability (AT-7519 + Tozasertib; first compound 0.3162 µM)	relative viability (AT-7519 + Tozasertib; first compound 1 µM)	relative viability (AT-7519 + Decitabine; first compound 0.01 µM)	relative viability (AT-7519 + Decitabine; first compound 0.03162 µM)	relative viability (AT-7519 + Decitabine; first compound 0.3162 µM)	relative viability (AT-7519 + Decitabine; first compound 1 µM)
NCI-H1755	1.06	1.04	1.01	1.05	1.05	0.913	0.864	0.831	0.964	0.874	0.489	0.618	0.578	0.547	0.724	0.721	0.825	0.716
NCI-H1793	0.769	1		0.651	0.59	1	0.762	0.883	0.952	0.891	0.32	0.323	0.33	0.312	0.517	0.551	0.449	0.378
NCI-H1915	1.06	1.01	1	0.883	1.02	0.25	0.286	0.256	0.258	0.258	0.482	0.461	0.456	0.347	0.25	0.248	0.288	0.235
NCI-H1944	0.8	0.753	0.765	0.753	0.565	0.407	0.402	0.426	0.416	0.33	0.25	0.24	0.249	0.213	0.443	0.415	0.434	0.344
NCI-H1975	1.08	0.883	0.833	0.987	0.861	0.868	0.854	0.772	0.795	0.824	0.609	0.7	0.626	0.133	0.398	0.371	0.252	0.271
NCI-H1993	0.82	0.71	0.801	0.723	0.589	1.03	0.931	1.18	1.09	1.1	0.547	0.584	0.544	0.506	0.671	0.597	0.543	0.391
NCI-H2009	0.898	0.889	0.871	0.884	0.836	0.656	0.663	0.681	0.743	0.711	0.751	0.72	0.703	0.515	0.395	0.406	0.446	0.309
NCI-H2023	0.825	0.773	0.899	0.95	0.818	0.509	0.443	0.442	0.528	0.416	0.362	0.379	0.295	0.135	0.201	0.234	0.209	0.125
NCI-H2085	0.915	0.783	0.749	0.818	0.842	0.866	0.757	0.811	0.757	0.722	0.768	0.853	0.787	0.819	0.621	0.561	0.532	0.508
NCI-H2087	1.16	0.981	1.02	1.03	1.02	0.688	0.651	0.622	0.563	0.601	0.255	0.269	0.282	0.0867	0.24	0.257	0.262	0.0751
NCI-H2126	0.808	0.723	0.723	0.777	0.759	0.957	0.901	0.904	0.893	0.874	0.946	0.865	0.504	0.32	0.524	0.568	0.552	0.495
NCI-H2170	0.267	0.272	0.271	0.292	0.286	0.639	0.557	0.595	0.614	0.576	0.672	0.751	0.762	0.651	0.495	0.454	0.461	0.522
NCI-H2347	1.05	0.921	0.839	0.882	0.824	0.569	0.538	0.618	0.569	0.8	0.635	0.512	0.425	0.442	0.561	0.59	0.571	0.526
NCI-H2405	1.04	1.07	0.979	1.02	1	0.85	0.888	0.816	0.898	0.845	0.819	0.797	0.725	0.463	0.741	0.744	0.711	0.486
NCI-H3122	0.99	0.982	1.04	0.947	1.01	0.643	0.623	0.561	0.644	0.584	0.535	0.41	0.175	0.136	0.508	0.484	0.511	0.193
PC-3 [JPC-3]	0.483	0.474	0.484	0.445	0.426	1.31	1.15	1.17	1.14	1.09	0.93	0.903	0.88	0.902	0.802	0.815	0.726	0.756
PC-14	0.369	0.333	0.322	0.357	0.329	0.249	0.275	0.29	0.272	0.246	0.591	0.677	0.526	0.392	0.264	0.205	0.189	0.0859
RERF-LC-KJ	0.873	0.851	0.854	0.835	0.788	0.889	0.964	0.987	0.959	1.02	0.426	0.505	0.5	0.204	0.738	0.701	0.452	0.229
